We go through 43 compounds from ChEMBL document CHEMBL1128536, “Tyrosine kinase inhibitors. 5. Synthesis and structure-activity relationships for 4-[(phenylmethyl)amino]- and 4-(phenylamino)quinazolines as potent adenosine 5'-triphosphate binding site inhibitors of the tyrosine kinase domain of the epidermal growth factor receptor” (J Med Chem, 1995).

Assay [1] addresses T1, Epidermal growth factor receptor (Homo sapiens, UniProt P00533). Briefly: Inhibition of Epidermal growth factor receptor from A431 cells.
Assay [2] has as its target T1, Epidermal growth factor receptor. Briefly: Evaluation of inhibitory activity against phospholipase C-gamma1 phosphorylation by Epidermal growth factor receptor enzyme isolated from A431 cells.

As usually defined, the IC50 is the point on the concentration scale where inhibition reaches its midpoint.

Where only a bound is given, the exact number is not on record here.

T1 sequence (P00533 whole entry): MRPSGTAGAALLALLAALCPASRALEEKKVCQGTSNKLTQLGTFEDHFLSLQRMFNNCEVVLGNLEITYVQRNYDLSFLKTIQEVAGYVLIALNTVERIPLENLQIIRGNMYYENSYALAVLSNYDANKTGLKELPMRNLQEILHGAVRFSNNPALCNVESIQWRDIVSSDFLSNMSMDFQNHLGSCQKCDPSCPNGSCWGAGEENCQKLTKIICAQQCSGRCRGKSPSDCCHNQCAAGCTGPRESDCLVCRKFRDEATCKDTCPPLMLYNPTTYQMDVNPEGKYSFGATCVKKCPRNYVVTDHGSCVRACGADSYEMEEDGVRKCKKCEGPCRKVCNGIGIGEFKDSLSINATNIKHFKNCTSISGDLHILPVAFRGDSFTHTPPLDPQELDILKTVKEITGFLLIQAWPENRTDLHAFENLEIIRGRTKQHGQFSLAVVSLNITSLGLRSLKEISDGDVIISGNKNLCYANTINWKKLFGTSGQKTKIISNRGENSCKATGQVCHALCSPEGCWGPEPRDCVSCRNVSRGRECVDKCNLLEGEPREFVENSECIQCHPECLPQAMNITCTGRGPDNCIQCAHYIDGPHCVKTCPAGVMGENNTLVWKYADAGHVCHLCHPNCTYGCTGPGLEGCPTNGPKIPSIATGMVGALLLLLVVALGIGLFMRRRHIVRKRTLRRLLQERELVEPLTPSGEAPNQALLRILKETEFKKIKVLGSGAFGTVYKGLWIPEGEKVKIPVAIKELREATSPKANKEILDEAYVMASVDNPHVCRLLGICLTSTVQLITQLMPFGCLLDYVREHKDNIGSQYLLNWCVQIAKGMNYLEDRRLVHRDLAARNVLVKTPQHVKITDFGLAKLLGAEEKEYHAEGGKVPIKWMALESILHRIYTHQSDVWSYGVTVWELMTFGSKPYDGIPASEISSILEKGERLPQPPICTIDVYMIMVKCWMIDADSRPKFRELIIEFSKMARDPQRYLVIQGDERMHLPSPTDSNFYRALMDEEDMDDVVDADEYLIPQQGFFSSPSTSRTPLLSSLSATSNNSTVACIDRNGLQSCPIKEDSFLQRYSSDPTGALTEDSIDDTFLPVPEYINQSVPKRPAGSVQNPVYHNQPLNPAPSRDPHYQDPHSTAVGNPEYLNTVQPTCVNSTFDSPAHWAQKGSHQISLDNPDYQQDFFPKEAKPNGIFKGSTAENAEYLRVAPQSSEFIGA

`c1ccc(CNc2ncnc3ccccc23)cc1` had an IC50 in assay [1] of 320 nM.

`COc1cc2ncnc(NCc3ccccc3)c2cc1O`: inhibition in assay [2] was half-maximal at 56 nM (IC50).

The compound `O=[N+]([O-])c1cccc2ncnc(Nc3cccc(Br)c3)c12` yielded an IC50 in assay [1] of 355 nM. `O=[N+]([O-])c1ccc2c(NCc3ccccc3)ncnc2c1` showed an IC50 in assay [2] of 5900 nM.

In assay [2], `COc1ccc(CNc2ncnc3ccccc23)cc1` gave an IC50 of 10000 nM. Still for that read-out and setting: the value for `Clc1ccc(CNc2ncnc3ccccc23)cc1` was 7000 nM. Take `O=[N+]([O-])c1cccc2c(NCc3ccccc3)ncnc12`: in assay [1], the IC50 is more than 10000 nM. In turn, `Brc1cccc(Oc2ncnc3ccccc23)c1` gave an IC50 in assay [2] of 756 nM.

`c1ccc(CCNc2ncnc3ccccc23)cc1` gave an IC50 in assay [2] of 4100 nM. Against the preceding compound, the IC50 is about 5.4-fold higher. As to `Nc1cccc2c(NCc3ccccc3)ncnc12`, in assay [1], the IC50 was more than 10000 nM. As to `Brc1cccc(Nc2cnnc3ccccc23)c1`, the IC50 in assay [2] is more than 10000 nM.

With `O=[N+]([O-])c1ccc2ncnc(NCc3ccccc3)c2c1`, the IC50 in assay [2] is more than 10000 nM.

`COc1cccc2ncnc(Nc3cccc(Br)c3)c12`: the IC50 in assay [2] was determined as 139 nM. Same read-out and setting: the value for `O=[N+]([O-])c1cccc2c(Nc3cccc(Br)c3)ncnc12` was more than 10000 nM.

Compound `Nc1cccc2ncnc(NCc3ccccc3)c12` yielded an IC50 in assay [2] of more than 10000 nM.

Take `O=[N+]([O-])c1cccc2ncnc(NCc3ccccc3)c12`: 8000 nM corresponded to half-maximal inhibition in assay [2] (IC50).

`Brc1cccc(Nc2nnnc3ccccc23)c1`: in assay [2], the IC50 is more than 1000 nM.

In assay [1], `COc1cccc2c(Nc3cccc(Br)c3)ncnc12` came in with an IC50 of 974 nM.

On to `CN(c1ccccc1)c1ncnc2ccccc12`, for which, in assay [2], half-maximal inhibition (IC50) required 100000 nM. For the compound `COc1cc2ncnc(NCc3ccccc3)c2cc1OC`, the IC50 in assay [2] worked out at 10 nM. `Brc1cccc(Nc2nncc3ccccc23)c1`: in assay [2], the IC50 is more than 100000 nM.

In assay [2], `COc1ccc2c(NCc3ccccc3)ncnc2c1` displayed an IC50 of 58 nM.

In turn, `Nc1cc2ncnc(Nc3cccc(Br)c3)c2cc1N` showed an IC50 in assay [2] of 0.12 nM. Against the preceding compound, the IC50 is about 480-fold lower.

`O=[N+]([O-])c1ccc2ncnc(Nc3cccc(Br)c3)c2c1` yielded an IC50 in assay [2] of 897 nM. With `Clc1cccc(Nc2ncnc3ccccc23)c1`, the IC50 in assay [2] is 23 nM.

The compound `COc1cccc2ncnc(NCc3ccccc3)c12` showed an IC50 in assay [2] of 4900 nM. In assay [2], `Nc1ccc2c(NCc3ccccc3)ncnc2c1` returned an IC50 of more than 1000 nM. In assay [2], `Brc1cccc(Nc2cnc3ccccc3n2)c1` gave an IC50 of more than 100000 nM.

As for `Nc1ccc2ncnc(NCc3ccccc3)c2c1`, in assay [2], the IC50 was found to be 1400 nM. Same read-out and setting: under `COc1ccc2ncnc(NCc3ccccc3)c2c1` stands 200 nM. Turning to `Nc1cccc2c(Nc3cccc(Br)c3)ncnc12`, the IC50 in assay [2] worked out at 105 nM. In turn, `Nc1cccc2ncnc(Nc3cccc(Br)c3)c12` yielded an IC50 in assay [2] of 439 nM. `COc1cc2c(NCc3ccccc3)ncnc2cc1O` returned an IC50 in assay [2] of 588 nM. As to `Brc1cccc(Nc2ccnc3ccccc23)c1`, the IC50 in assay [2] came to 5500 nM. The same measure, in the same setting: the value for `Brc1cccc(Nc2nccc3ccccc23)c1` was more than 100000 nM; that for `COc1cccc2c(NCc3ccccc3)ncnc12` was more than 10000 nM. For the compound `Cc1cccc(Nc2ncnc3ccccc23)c1`, the IC50 in assay [2] turned out to be 910 nM.

With `COc1ccc2ncnc(Nc3cccc(Br)c3)c2c1`, the IC50 in assay [2] was found to be 348 nM. As to `FC(F)(F)c1cccc(Nc2ncnc3ccccc23)c1`, in assay [2], 577 nM corresponded to half-maximal inhibition (IC50).

For the compound `Ic1cccc(Nc2ncnc3ccccc23)c1`, in assay [2], the IC50 came out at 80 nM. With `Oc1cc2ncnc(Nc3cccc(Br)c3)c2cc1O`, 0.17 nM corresponded to half-maximal inhibition in assay [1] (IC50). `COc1ccc2c(Nc3cccc(Br)c3)ncnc2c1`: the IC50 in assay [2] was 10 nM. For `O=[N+]([O-])c1ccc2c(Nc3cccc(Br)c3)ncnc2c1`, the IC50 in assay [2] came to 1000 nM. This IC50 is about 100-fold higher than that of the compound before.
